Data from patent US5332731A, “Cephalosporin derivatives” (Meiji Seika Kaisha, Ltd., priority 1989, dated 1994).
In brackets after ≈: the same amount, converted by molar mass.

Legend:
oral toxicity in mice = conditions: mouse, in vivo, oral administration, read-out: oral dosage tolerated without exhibiting toxic symptoms
Method: The new cephalosporin derivative of this invention may be administered orally at a unit dose of 100 mg to 250 mg to an adult human patient four times a day, for a guideline. However, precise dosage of the new cephalosporin is determinable through preliminary routine experiments, depending on the body weight, ages, sex and other various parameters of patients as well as the nature of the bacterial infections to be treated, and so on.

[1] = tested on: Citrobacter freundii GN346/16; experiment: antibacterial activity, MIC by standard serial dilution method; assay type: cell-based
Source text: (§1) Antibacterial activity of Compounds Nos. 1, 3, 5, 7, 9, 11, 13, 15, 17, 19, 21, 23, 25, 27, 29, 31, 33, 35 and 37 indentified hereinbefore which are the particular examples of the new cephalosporin derivative of general formula (I) according to this invention and which are in the form of the free carboxylic acid was estimated by determining the minimum inhibitory concentrations (MIC., μg/ml) of these compounds against a variety of bacteria according to a standard serial dilution method.

[2] = tested on: Citrobacter freundii GN346; experiment: as above; assay type: cell-based
Source text: as §1

[3] = tested on: Enterobacter cloacae G-0008; experiment: as above; assay type: cell-based; conditions: G0008
Source text: as §1

[4] = tested on: Enterobacter cloacae GN7471; experiment: as above; assay type: cell-based
Source text: as §1

[5] = tested on: Enterobacter hirae ATCC8043; experiment: as above; assay type: cell-based
Source text: as §1

[6] = tested on: Entrobacter faecalis W-73; experiment: as above; assay type: cell-based
Source text: as §1

Escherichia coli 255/S-1 = experiment: as above; assay type: cell-based; conditions: 255/S1
Source text: as §1

Escherichia coli 255 = experiment: as above; assay type: cell-based
Source text: as §1

Escherichia coli GN206 = experiment: as above; assay type: cell-based
Source text: as §1

[7] = tested on: Escherichia coli NIHJ JC-2; experiment: as above; assay type: cell-based; conditions: NIHJJC2
Source text: as §1

[8] = tested on: Escherichia coli W3630 RGN823; experiment: as above; assay type: cell-based; conditions: W3630RGN823
Source text: as §1

[9] = tested on: Klebsiella pneumoniae GN69; experiment: as above; assay type: cell-based
Source text: as §1

[10] = tested on: Klebsiella pneumoniae PCI602; experiment: as above; assay type: cell-based
Source text: as §1

[11] = tested on: Marganella morganii 1510/S-1; experiment: as above; assay type: cell-based
Source text: as §1

Marganella morganii 1510 = experiment: as above; assay type: cell-based
Source text: as §1

[12] = tested on: Proteus vulgaris GN76/C-1; experiment: as above; assay type: cell-based
Source text: as §1

Proteus vulgaris GN76 = experiment: as above; assay type: cell-based
Source text: as §1

[13] = tested on: Pseudomonas aeruginosa GN10362; experiment: as above; assay type: cell-based
Source text: as §1

[14] = tested on: Serratia marcescens GN10857; experiment: as above; assay type: cell-based
Source text: as §1

[15] = tested on: Serratia marcescens No. 1; experiment: as above; assay type: cell-based
Source text: as §1

[16] = tested on: Staphylococcus aureus 209P JC-1; experiment: as above; assay type: cell-based
Source text: as §1

[17] = tested on: Staphylococcus epidermidis ATCC14990; experiment: as above; assay type: cell-based
Source text: as §1

[18] = recovery in urine of mice after oral administration (paper-disc assay); assay type: in vivo, mice of ICR-strain; conditions: ICR mice, male, 0.5 mg per mouse oral; 0-4 h; molar %, as free carboxylic acid; averaged
Source text: Thus, some tests were made to evaluate the amount or rate of the cephalosporin compound of this invention which can be recovered as the antibacterially active compound from the urine after it was orally given to mice.
The test compounds estimated in this test for their rate of recovery from urine are Compounds Nos. 2, 4, 6, 8, 10, 12, 14, 16, 18, 20, 22, 24, 26, 28, 30, 32, 34, 36 and 38 identified hereinbefore which are the particular examples of the cephalosporin derivative of general formula (I) of this invention and which are in the form of the pivaloyloxymethyl ester.
To mice of ICR-strain (male, 4-weeks-aged, five mice in each group) was orally administered the test compound identified above at a dosage of 0.5 mg per mouse. By the end of 4 hours after the administration of the test compound, all the amounts of the urine excreted by the treated mice were collected together, and the total quantity of the cephalosporin compound of this invention (as the free carboxylic acid form) in the urine so collected was determined according to a paper-disc assay method using Escherichia coli K-12 8236 strain as the assay strain. […]

Structure (SMILES) | MIC [1] [µg/mL] | MIC [2] [µg/mL] | MIC [3] [µg/mL] | MIC [4] [µg/mL] | MIC [5] [µg/mL] | MIC [6] [µg/mL] | MIC (Escherichia coli 255/S-1) [µg/mL] | MIC (Escherichia coli 255) [µg/mL] | MIC (Escherichia coli GN206) [µg/mL] | MIC [7] [µg/mL] | MIC [8] [µg/mL] | MIC [9] [µg/mL] | MIC [10] [µg/mL] | MIC [11] [µg/mL] | MIC (Marganella morganii 1510) [µg/mL] | MIC [12] [µg/mL] | MIC (Proteus vulgaris GN76) [µg/mL] | MIC [13] [µg/mL] | MIC [14] [µg/mL] | MIC [15] [µg/mL] | other results
CO/N=C(\C(=O)NC1C(=O)N2C(C(=O)OCOC(=O)C(C)(C)C)=C(SC3CCOC3)CS[C@H]12)c1csc(N)n1 (stereo partly drawn) [Compound No. 4, pivaloyloxymethyl 7-[(Z)-2-(2-aminothiazol-4-yl)-2-methoxyiminoacetamido]-3-(tetrahydrofuran-3-Yl) thio-3-cephem-4-carboxylate] |  |  |  |  |  |  |  |  |  |  |  |  |  |  |  |  |  |  |  |  | NOAEL (oral toxicity in mice): 3000 mg/kg
CO/N=C(\C(=O)NC1C(=O)N2C(C(=O)OCOC(=O)C(C)(C)C)=C(SCC3CCOC3)CS[C@H]12)c1csc(N)n1 (stereo partly drawn) [Compound No. 28, pivaloyloxymethyl 7-[(Z)-2-(2-aminothiazol-4-yl)-2-methoxyiminoacetamido]-3-(tetrahydrofuran-3-yl) methylthio-3-cephem-4-carboxylate] |  |  |  |  |  |  |  |  |  |  |  |  |  |  |  |  |  |  |  |  | NOAEL (oral toxicity in mice): 3000 mg/kg
CO/N=C(\C(=O)NC1C(=O)N2C(C(=O)O)=C(SCC3COCO3)CS[C@H]12)c1csc(N)n1 (stereo partly drawn) [Compound No. 29, 7 - [(Z)-2-(2-aminothiazol-4-yl)-2-methoxyiminoacetamido]-3-(1,3-dioxolan-4-yl)methylthio-3-cephem-4-carboxylic acid] | 3.13 (≈ 6.24 µM) | > 100 | 0.39 (≈ 0.778 µM) | 50 (≈ 99.7 µM) | > 100 | > 100 | 0.39 (≈ 0.778 µM) | 50 (≈ 99.7 µM) | 6.25 (≈ 12.5 µM) | 0.39 (≈ 0.778 µM) | 0.78 (≈ 1.56 µM) | 0.2 (≈ 0.399 µM) | 0.2 (≈ 0.399 µM) | 0.39 (≈ 0.778 µM) | 50 (≈ 99.7 µM) | 6.25 (≈ 12.5 µM) | 0.1 (≈ 0.199 µM) | > 100 | 50 (≈ 99.7 µM) | 3.13 (≈ 6.24 µM) | MIC [16]: 1.56 µg/mL (≈ 3.11 µM); MIC [17]: 0.78 µg/mL (≈ 1.56 µM)
CO/N=C(\C(=O)NC1C(=O)N2C(C(=O)OCOC(=O)C(C)(C)C)=C(SCC3COCO3)CS[C@H]12)c1csc(N)n1 (stereo partly drawn) [Compound No. 30, pivaloyloxymethyl 7-[(Z)-2-(2-aminothiazol-4-yl)-2-methoxyiminoacetamido]-3-(1,3-dioxolan-4-yl) methylthio-3-cephem-4-carboxylate] |  |  |  |  |  |  |  |  |  |  |  |  |  |  |  |  |  |  |  |  | NOAEL (oral toxicity in mice): 3000 mg/kg
CO/N=C(\C(=O)NC1C(=O)N2C(C(=O)O)=C(SCC3CCOCC3)CS[C@H]12)c1csc(N)n1 (stereo partly drawn) [Compound No. 31, 7-[(Z)-2-(2-aminothiazol-4-yl)-2-methoxyiminoacetamido]-3-(tetrahydropyran-4-yl)methylthio-3-cephem-4-carboxylic acid] | 3.13 (≈ 6.09 µM) | > 100 | 1.56 (≈ 3.04 µM) | 50 (≈ 97.3 µM) | > 100 | > 100 | 1.56 (≈ 3.04 µM) | 25 (≈ 48.7 µM) | 6.25 (≈ 12.2 µM) | 1.56 (≈ 3.04 µM) | 1.56 (≈ 3.04 µM) | 0.78 (≈ 1.52 µM) | 1.56 (≈ 3.04 µM) | 0.78 (≈ 1.52 µM) | 100 (≈ 195 µM) | 12.5 (≈ 24.3 µM) | 0.78 (≈ 1.52 µM) | 100 (≈ 195 µM) | 25 (≈ 48.7 µM) | 3.13 (≈ 6.09 µM) | MIC [16]: 1.56 µg/mL (≈ 3.04 µM); MIC [17]: 1.56 µg/mL (≈ 3.04 µM)
CO/N=C(\C(=O)NC1C(=O)N2C(C(=O)O)=C(SCC3COCOC3)CS[C@H]12)c1csc(N)n1 (stereo partly drawn) [Compound No. 33, 7-[(Z)-2-(2-aminothiazol-4-yl)-2-methoxyiminoacetamido]-3-(1,3-dioxan-5-yl)methylthio-3-cephem-4-carboxylic acid] | 3.13 (≈ 6.07 µM) | > 100 | 0.78 (≈ 1.51 µM) | 50 (≈ 97 µM) | > 100 | > 100 | 0.78 (≈ 1.51 µM) | 50 (≈ 97 µM) | 6.25 (≈ 12.1 µM) | 0.78 (≈ 1.51 µM) | 0.78 (≈ 1.51 µM) | 0.1 (≈ 0.194 µM) | 0.39 (≈ 0.756 µM) | 0.39 (≈ 0.756 µM) | 100 (≈ 194 µM) | 6.25 (≈ 12.1 µM) | 0.2 (≈ 0.388 µM) | > 100 | 50 (≈ 97 µM) | 0.78 (≈ 1.51 µM) | MIC [16]: 0.78 µg/mL (≈ 1.51 µM); MIC [17]: 0.78 µg/mL (≈ 1.51 µM)
Nc1nc(/C(=N/O)C(=O)NC2C(=O)N3C(C(=O)O)=C(SCC4COCO4)CSC23)cs1 (stereo not drawn) [Compound No. 35] | 3.13 (≈ 6.42 µM) | > 100 | 1.56 (≈ 3.2 µM) | 50 (≈ 103 µM) | 12.5 (≈ 25.6 µM) | 12.5 (≈ 25.6 µM) | 0.39 (≈ 0.8 µM) | 50 (≈ 103 µM) | 12.5 (≈ 25.6 µM) | 0.39 (≈ 0.8 µM) | 1.56 (≈ 3.2 µM) | 0.05 (≈ 0.103 µM) | 0.39 (≈ 0.8 µM) | 0.2 (≈ 0.41 µM) | 50 (≈ 103 µM) | 100 (≈ 205 µM) | 12.5 (≈ 25.6 µM) | > 100 | > 100 | 12.5 (≈ 25.6 µM) | MIC [16]: 0.39 µg/mL (≈ 0.8 µM); MIC [17]: 0.2 µg/mL (≈ 0.41 µM)
Nc1nc(/C(=N/O)C(=O)NC2C(=O)N3C(C(=O)O)=C(SCC4CCOCC4)CS[C@H]23)cs1 (stereo partly drawn) [Compound No. 37, 7-[(Z)-2-(2-aminothiazol-4-yl)-2-hydroxyiminoacetamido]-3-(tetrahydropyran-4-yl)methylthio-3-cephem-4-carboxylic acid] | 6.25 (≈ 12.5 µM) | > 100 | 3.13 (≈ 6.27 µM) | 100 (≈ 200 µM) | 50 (≈ 100 µM) | 25 (≈ 50 µM) | 3.13 (≈ 6.27 µM) | 50 (≈ 100 µM) | 12.5 (≈ 25 µM) | 3.13 (≈ 6.27 µM) | 6.25 (≈ 12.5 µM) | 0.1 (≈ 0.2 µM) | 3.13 (≈ 6.27 µM) | 0.78 (≈ 1.56 µM) | 100 (≈ 200 µM) | 50 (≈ 100 µM) | 3.13 (≈ 6.27 µM) | > 100 | > 100 | 12.5 (≈ 25 µM) | MIC [16]: 0.39 µg/mL (≈ 0.781 µM); MIC [17]: 0.39 µg/mL (≈ 0.781 µM)
CC(C)(C)C(=O)OCOC(=O)C1=C(SCC2CCOCC2)CS[C@@H]2C(NC(=O)/C(=N\O)c3csc(N)n3)C(=O)N12 (stereo partly drawn) [Compound No. 38, pivaloyloxymethyl 7-[(Z)-2-(2-aminothiazol-4-yl)-2-hydroxyiminoacetamido]-3-(tetrahydropyran-4-yl) methylthio-3-cephem-4-carboxylate] |  |  |  |  |  |  |  |  |  |  |  |  |  |  |  |  |  |  |  |  | Rate of recovery of test compound remaining in urine collected during 0 to 4 hours after oral administration [18]: Less than detectable amount
